{"source": "patent EP0547508A1", "about": "“Use of xanthine derivatives for the stabilisation of the auto-regulation of cerebral blood flow” (priority 1991, dated 1993)", "system": "Ratten", "assay": "Cerebral autoregulation in rats under adrenaline-induced acute hypertension, with or without carotid occlusion (ischaemia/reperfusion)", "assay_type": "in vivo", "excerpt": "Es werden 36 Ratten unterteilt in drei Gruppen operiert. Die erste Gruppe dient als Kontrolle, d.h. es wird eine akute Hypertonie erzeugt, ohne daß die Carotiden abgeklemmt werden. Die zweite Gruppe wird während der Ischämie und die dritte Gruppe während der Reperfusion mit Adrenalin stimuliert. In jeder Gruppe werden jeweils 6 Tiere mit der Verbindung 1 als Dauerinfusion behandelt.\nBei einem mittleren arteriellen Druck von 170 mmHg wird in der Kontrollgruppe die cerebrale Autoregulation durchbrochen (entsprechend 3 µg/kg Adrenalin (Firma Sigma)). Die dreifache Dosis führt bei einem Blutdruck von 200 mmHg zum Tod der Tiere. Im Gegensatz dazu ist in der mit Verbindung 1 behandelten Gruppe die dreifache Konzentration und ein mittlerer Druck von 180 mmHg erforderlich um an die Grenze der Autoregulation zu kommen. Der Verschluß beider Carotiden führt bei den Tieren, die mit Verbindung 1 behandelt wurden, zu einer höheren Restdurchblutung (25 %) als bei den Kontrolltieren. Während der Reperfusion bleibt die Gehirndurchblutung in der Kontrollgruppe auf dem niedrigen Niveau von 23 %. Die Autoregulation wird bereits bei 150 mmHg durchbrochen (entsprechend 3 µg/kg/Adrenalin). […] Erst bei 180 mmHg kommt es zum Durchbruch der Autoregulation.\nAlle Kontrolltiere verstarben nach einer Dosis von 10 µg/kg Adrenalin. Die letale Dosis für mit Verbindung 1 behandelte Tiere liegt bei 30 µg/kg Adrenalin. Zusammenfassend läßt sich feststellen, daß die mit Verbindung 1 behandelten Tiere - im Vergleich mit den Kontrolltieren - höhere Blutdruckspitzen und Blutdruckabsenkungen tolerieren und deren Gehirndurchblutungsautoregulation erst bei der 3-fachen Adrenalinkonzentration durchbrochen wird."}
{"smiles": "CCCn1cnc2c1c(=O)n(CCCCC(C)=O)c(=O)n2C", "note": "[Verbindung 1, 1-(5-Oxohexyl)-3-methyl-7-n-propyl-xanthin]", "values": [{"measurement": "mittlerer Druck erforderlich um an die Grenze der Autoregulation zu kommen", "setting": "acute hypertension by Adrenalin, carotids not clamped, Verbindung 1 as continuous infusion, control group 170 mmHg", "result": 180, "unit": "mmHg"}, {"measurement": "Adrenalin-Konzentration erforderlich um an die Grenze der Autoregulation zu kommen", "setting": "acute hypertension, carotids not clamped, relative to control group (3 µg/kg Adrenalin)", "result": "dreifache"}, {"measurement": "Durchbruch der Autoregulation", "setting": "during reperfusion, Adrenalin stimulation, control group 150 mmHg", "result": 180, "unit": "mmHg"}, {"measurement": "Restdurchblutung", "setting": "occlusion of both carotids (ischaemia), higher than in control animals", "result": 25, "unit": "%"}, {"measurement": "Gehirndurchblutung während der Reperfusion", "setting": "reperfusion after carotid occlusion, control group stays at 23 %", "result": "erreichen sofort wieder das präischämische Ausgangsniveau"}, {"measurement": "Adrenalinkonzentration bei der die Gehirndurchblutungsautoregulation durchbrochen wird", "setting": "summary, fold compared with control animals", "result": 3}]}
